From ChEMBL document CHEMBL3132769, “Fragment growing to retain or alter the selectivity of anchored kinase hinge-binding fragments” (Medchemcomm, 2014)

Assays:
[1] = target: Tyrosine-protein kinase Lyn (Homo sapiens) (UniProt P07948); assay: Inhibition of human full length LYN expressed in baculovirus assessed as substrate phosphorylation using fluorescence-labelled peptides as substrate at 0.06 uM after 90 mins by microfluidic peptide phosphorylation assay
[2] = target: Protein kinase C theta type (Homo sapiens) (UniProt Q04759); assay: Inhibition of human truncated PKC theta expressed in baculovirus assessed as substrate phosphorylation using fluorescence-labelled peptides as substrate at 0.1 uM after 90 mins by microfluidic peptide phosphorylation assay
Sequence of Protein kinase C theta type (Homo sapiens) (Q04759 whole entry, looked up, the tested form may be a part): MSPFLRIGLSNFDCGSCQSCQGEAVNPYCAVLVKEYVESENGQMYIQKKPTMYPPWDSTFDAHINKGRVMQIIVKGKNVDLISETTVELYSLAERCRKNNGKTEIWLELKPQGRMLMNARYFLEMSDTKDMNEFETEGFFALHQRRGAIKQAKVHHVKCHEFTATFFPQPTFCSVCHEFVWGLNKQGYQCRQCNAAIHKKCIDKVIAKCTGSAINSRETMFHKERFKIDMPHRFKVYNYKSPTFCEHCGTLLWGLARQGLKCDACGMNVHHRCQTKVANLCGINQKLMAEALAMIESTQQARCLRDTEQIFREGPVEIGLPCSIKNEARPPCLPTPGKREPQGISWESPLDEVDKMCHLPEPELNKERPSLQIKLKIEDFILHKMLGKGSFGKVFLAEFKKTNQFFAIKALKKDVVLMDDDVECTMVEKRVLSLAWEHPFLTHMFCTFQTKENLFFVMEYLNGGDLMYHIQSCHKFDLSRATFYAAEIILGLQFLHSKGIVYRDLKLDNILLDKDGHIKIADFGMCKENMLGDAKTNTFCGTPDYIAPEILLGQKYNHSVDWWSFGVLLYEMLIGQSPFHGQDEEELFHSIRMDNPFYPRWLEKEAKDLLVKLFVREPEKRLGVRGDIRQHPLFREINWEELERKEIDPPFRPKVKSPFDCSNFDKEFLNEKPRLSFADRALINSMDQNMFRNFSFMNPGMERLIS

[3] = target: T1, Serine/threonine-protein kinase BRSK2 (Homo sapiens) (UniProt Q8IWQ3); assay: Inhibition of human truncated BRSK2 expressed in baculovirus assessed as substrate phosphorylation using fluorescence-labelled peptides as substrate at 0.1 uM after 90 mins by microfluidic peptide phosphorylation assay
T1 sequence (whole entry): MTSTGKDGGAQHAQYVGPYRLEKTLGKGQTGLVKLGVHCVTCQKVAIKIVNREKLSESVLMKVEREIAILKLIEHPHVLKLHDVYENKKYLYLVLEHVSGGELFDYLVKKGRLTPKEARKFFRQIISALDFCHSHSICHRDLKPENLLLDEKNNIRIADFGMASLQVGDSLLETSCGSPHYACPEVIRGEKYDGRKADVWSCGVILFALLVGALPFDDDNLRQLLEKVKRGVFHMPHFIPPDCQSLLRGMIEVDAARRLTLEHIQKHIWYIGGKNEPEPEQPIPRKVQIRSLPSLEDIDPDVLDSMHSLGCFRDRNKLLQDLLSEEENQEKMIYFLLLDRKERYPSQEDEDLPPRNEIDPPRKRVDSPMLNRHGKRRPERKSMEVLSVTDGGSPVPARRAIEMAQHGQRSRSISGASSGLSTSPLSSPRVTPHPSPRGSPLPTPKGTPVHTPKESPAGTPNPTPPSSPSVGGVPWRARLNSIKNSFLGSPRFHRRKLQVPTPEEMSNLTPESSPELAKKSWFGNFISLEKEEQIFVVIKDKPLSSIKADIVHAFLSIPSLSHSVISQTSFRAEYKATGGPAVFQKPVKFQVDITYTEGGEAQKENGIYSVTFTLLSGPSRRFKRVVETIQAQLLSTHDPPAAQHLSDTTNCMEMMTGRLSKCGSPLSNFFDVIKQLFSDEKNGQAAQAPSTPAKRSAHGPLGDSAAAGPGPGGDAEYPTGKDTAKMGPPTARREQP

[4] = target: T2, Serine/threonine-protein kinase D3 (Homo sapiens) (UniProt O94806); assay: Inhibition of human full length PKD3 expressed in baculovirus assessed as substrate phosphorylation using fluorescence-labelled peptides as substrate at 0.2 uM after 90 mins by microfluidic peptide phosphorylation assay
T2 sequence (whole entry): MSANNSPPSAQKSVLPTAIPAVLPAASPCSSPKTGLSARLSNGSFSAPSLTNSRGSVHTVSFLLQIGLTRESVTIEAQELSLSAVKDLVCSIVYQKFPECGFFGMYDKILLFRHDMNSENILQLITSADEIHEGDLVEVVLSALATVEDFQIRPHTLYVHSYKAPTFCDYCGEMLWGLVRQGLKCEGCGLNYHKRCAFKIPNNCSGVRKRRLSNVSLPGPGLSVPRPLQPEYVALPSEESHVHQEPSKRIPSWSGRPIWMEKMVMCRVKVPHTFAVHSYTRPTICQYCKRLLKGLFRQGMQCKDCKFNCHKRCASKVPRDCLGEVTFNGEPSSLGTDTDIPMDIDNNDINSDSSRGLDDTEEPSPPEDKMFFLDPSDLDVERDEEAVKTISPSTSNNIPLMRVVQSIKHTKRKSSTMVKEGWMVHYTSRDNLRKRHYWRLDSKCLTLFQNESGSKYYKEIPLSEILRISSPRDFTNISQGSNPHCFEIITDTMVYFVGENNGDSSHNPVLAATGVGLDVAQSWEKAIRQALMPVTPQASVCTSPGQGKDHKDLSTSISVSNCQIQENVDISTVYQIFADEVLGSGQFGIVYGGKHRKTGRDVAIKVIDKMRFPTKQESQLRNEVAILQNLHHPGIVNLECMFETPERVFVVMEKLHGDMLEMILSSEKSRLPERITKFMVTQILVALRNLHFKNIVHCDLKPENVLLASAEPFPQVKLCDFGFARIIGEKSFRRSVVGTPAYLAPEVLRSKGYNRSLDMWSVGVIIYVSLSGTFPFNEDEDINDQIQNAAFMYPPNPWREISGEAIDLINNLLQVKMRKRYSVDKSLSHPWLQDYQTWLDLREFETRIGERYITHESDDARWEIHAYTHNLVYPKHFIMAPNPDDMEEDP

[5] = system: Tyrosine-protein kinase ABL1 (Homo sapiens), P00519 [T315I]; assay: Inhibition of human truncated ABL T315I mutant expressed in baculovirus assessed as substrate phosphorylation using fluorescence-labelled peptides as substrate at 0.2 uM after 90 mins by microfluidic peptide phosphorylation assay
[6] = target: Protein kinase C beta type (Homo sapiens) (UniProt P05771); assay: Inhibition of human truncated PKC beta1 expressed in baculovirus assessed as substrate phosphorylation using fluorescence-labelled peptides as substrate at 2 uM after 90 mins by microfluidic peptide phosphorylation assay
Sequence of Protein kinase C beta type (Homo sapiens) (P05771 2-671 limits assumed): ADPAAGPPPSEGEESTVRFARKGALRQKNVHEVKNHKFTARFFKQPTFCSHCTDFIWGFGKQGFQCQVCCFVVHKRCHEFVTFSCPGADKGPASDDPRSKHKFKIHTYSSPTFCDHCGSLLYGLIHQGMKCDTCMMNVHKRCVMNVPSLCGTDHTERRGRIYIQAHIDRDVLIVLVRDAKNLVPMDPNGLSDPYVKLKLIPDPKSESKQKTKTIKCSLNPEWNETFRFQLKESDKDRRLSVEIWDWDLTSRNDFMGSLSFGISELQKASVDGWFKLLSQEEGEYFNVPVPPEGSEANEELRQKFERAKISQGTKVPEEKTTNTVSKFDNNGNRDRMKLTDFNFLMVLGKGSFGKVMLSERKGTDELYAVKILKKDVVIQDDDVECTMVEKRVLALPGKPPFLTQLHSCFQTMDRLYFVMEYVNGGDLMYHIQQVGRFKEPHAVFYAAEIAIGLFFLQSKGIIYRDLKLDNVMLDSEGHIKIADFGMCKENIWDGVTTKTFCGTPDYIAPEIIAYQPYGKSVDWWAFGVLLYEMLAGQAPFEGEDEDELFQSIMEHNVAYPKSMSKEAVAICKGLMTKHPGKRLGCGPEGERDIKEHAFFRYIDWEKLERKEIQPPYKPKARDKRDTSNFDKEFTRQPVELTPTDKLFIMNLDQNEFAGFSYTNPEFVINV

[7] = target: Protein kinase C eta type (Homo sapiens) (UniProt P24723); assay: Inhibition of human truncated PKC eta expressed in baculovirus assessed as substrate phosphorylation using fluorescence-labelled peptides as substrate at 8 uM after 90 mins by microfluidic peptide phosphorylation assay
Sequence of Protein kinase C eta type (Homo sapiens) (P24723 whole entry, the tested form may be a part): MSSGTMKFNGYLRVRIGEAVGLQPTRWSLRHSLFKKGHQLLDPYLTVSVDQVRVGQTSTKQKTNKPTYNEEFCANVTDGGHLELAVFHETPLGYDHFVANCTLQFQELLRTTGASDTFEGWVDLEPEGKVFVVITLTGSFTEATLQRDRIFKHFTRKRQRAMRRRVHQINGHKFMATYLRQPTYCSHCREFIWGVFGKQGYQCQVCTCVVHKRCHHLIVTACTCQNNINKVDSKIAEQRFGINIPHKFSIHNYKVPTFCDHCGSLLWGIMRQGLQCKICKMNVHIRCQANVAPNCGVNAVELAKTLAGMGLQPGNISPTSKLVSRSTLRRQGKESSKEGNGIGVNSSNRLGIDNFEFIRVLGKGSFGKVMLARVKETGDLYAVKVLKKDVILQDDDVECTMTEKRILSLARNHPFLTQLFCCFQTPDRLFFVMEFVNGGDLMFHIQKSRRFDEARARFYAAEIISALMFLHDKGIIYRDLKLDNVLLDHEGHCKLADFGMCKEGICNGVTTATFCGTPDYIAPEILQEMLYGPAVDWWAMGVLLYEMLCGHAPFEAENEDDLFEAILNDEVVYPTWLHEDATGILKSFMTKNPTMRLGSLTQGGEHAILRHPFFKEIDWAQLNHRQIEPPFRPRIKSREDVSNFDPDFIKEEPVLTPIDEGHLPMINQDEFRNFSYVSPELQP

Sequence of Tyrosine-protein kinase Lyn (Homo sapiens) (P07948 2-512 limits assumed): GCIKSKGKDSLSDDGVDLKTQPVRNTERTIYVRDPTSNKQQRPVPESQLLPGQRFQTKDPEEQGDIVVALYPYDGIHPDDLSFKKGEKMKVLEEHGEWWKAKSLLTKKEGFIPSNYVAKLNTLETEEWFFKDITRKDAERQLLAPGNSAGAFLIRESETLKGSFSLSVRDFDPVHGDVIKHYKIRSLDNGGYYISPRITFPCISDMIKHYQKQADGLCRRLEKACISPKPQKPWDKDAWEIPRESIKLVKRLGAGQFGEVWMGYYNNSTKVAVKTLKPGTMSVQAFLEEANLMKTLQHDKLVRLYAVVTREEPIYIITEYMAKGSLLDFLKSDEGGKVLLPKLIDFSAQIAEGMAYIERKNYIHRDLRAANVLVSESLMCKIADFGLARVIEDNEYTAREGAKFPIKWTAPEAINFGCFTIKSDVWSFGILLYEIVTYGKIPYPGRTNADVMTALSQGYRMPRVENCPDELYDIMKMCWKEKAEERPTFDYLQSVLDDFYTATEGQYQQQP

NC1(Cc2ccc(Cl)cc2)CCN(c2ncnc3[nH]ccc23)CC1
inhibition [1]: 0%

C[C@H](CN(C)C)Oc1nc(Nc2cc3cccc(Cl)c3cn2)cnc1C#N
inhibition [2]: 5% | inhibition [3]: 28.5%

Clc1ccc(C2(c3ccc(-c4ncnc5[nH]cnc45)cc3)CCNCC2)cc1
inhibition [4]: 12.5% | inhibition [5]: 0%

NC1CCN(c2ncnc3[nH]ccc23)CC1
inhibition [6]: 16.5%

NCC1CCN(c2ncnc3[nH]ccc23)CC1
inhibition [7]: 82%
